From US9365566B2 (Takeda Pharmaceutical Company Limited, priority 2012, dated 2016)

Target: T1, human BTK (Homo sapiens, UniProt Q06187)
T1 construct: GST (Glutathione-S-Transferase) (cleaved yes); made in house; host or cells: Spodoptera frugiperda Sf9 cells (baculovirus, Bac-to-Bac)
Assay: BTK inhibition assay: BTK-mediated phosphorylation of FAM-labeled substrate 5-FAM-EEPLYWSFPAKKK-NH2 (Caliper LC-3000)
Format: biochemical
Settings: pIC50 = -log(IC50), IC50 molar; residues 382 to 659 of human BTK; incubated at room temperature for 60 minutes; larger values represent higher potency
Text: The activity of compounds as BTK inhibitors may be determined by a variety of methods, including in vitro and in vivo methods.
This construct engineers an in-frame translational fusion with the Glutathione-S-Transferase (GST) protein for use in affinity purification. The fusion protein derived from this construct contains a protease recognition sequence to liberate the BTK from the GST affinity tag. High-titer baculoviral stocks, generated using the Bac-to-Bac® system (Invitrogen), are used to express the recombinant protein in Spodoptera frugiperda Sf9 cells in 10 L Wave bags. Recombinant proteins are isolated from cellular extracts by passage over Glutathione Sepharose 4B (GE Healthcare) and the BTK moiety is released from the GST affinity tag by treatment with PreScission protease. The BTK recombinant protein is further purified by size exclusion chromatography (HiLoad 16/60 Superdex 200, GE Healthcare) in a buffer containing 20 mM Hepes (pH 7.4), 50 mM NaCl, 10 mM MgCl2, 0.25 mM TCEP and 0.1 mM EDTA. The purity of the fractions is assessed by SDS PAGE and the peak protein fractions are pooled and concentrated using Amicon Ultra-15 Centrifugal Filter Devices (Millipore).
The inhibitory properties of compounds relative to BTK is determined using a black 384-well-plate format in a buffer which contains 50 mM Hepes, 10 mM NaCl, 10 mM MgCl2, 0.2 mM EDTA, 0.01% Brij35®, 1 mM DTT, and 0.1 mg/mL BSA at pH 7.3. The test compound is prepared in DMSO using 2-fold serial dilutions for 11 data points, which are added to the buffer so that each dilution contains 3% DMSO. […] The reaction mixtures are incubated at room temperature for 60 minutes and then quenched by adding 25 μL of 50 mM EDTA. To quantify the fluorescent-labeled substrate and product following reaction, the test plate is loaded on a Caliper LC-3000, which measures percent of conversion by microfluidic-based separation.
The compounds were tested in accordance with the assay described on page 34 of the specification.

T1 sequence (Q06187 382-659): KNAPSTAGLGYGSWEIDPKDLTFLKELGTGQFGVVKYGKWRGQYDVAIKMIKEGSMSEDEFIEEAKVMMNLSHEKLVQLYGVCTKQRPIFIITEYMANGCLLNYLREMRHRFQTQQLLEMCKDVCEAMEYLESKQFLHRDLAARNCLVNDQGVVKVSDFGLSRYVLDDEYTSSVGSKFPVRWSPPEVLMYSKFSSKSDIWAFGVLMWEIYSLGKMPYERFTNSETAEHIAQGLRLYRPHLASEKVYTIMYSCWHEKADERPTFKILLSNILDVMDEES

Row | SMILES | IC50
1 | NC(=O)c1nnc2c(-c3ccc4nc(C5CCC(F)(F)CC5)[nH]c4c3)cccc2c1N [Example 84, 4-amino-8-(2-(4,4-difluorocyclohexyl)-1H-benzo[d]imidazol-6-yl)cinnoline-3-carboxamide] | 398 nM
2 | NC(=O)c1nnc2c(N3CCc4cn[nH]c4C3)cccc2c1N [Example 85, 4-amino-8-(4,5-dihydro-1H-pyrazolo[3,4-c]pyridin-6(7H)-yl)cinnoline-3-carboxamide] | 1000 nM
3 | NC(=O)c1nnc2c(N3CCc4[nH]ncc4C3)cccc2c1N [Example 86, 4-amino-8-(6,7-dihydro-1H-pyrazolo[4,3-c]pyridin-5(4H)-yl)cinnoline-3-carboxamide] | 2000 nM
4 | NC(=O)c1nnc2c(-c3ccc4nc(Nc5ccccc5)[nH]c4c3)cccc2c1N [Example 87, 4-amino-8-(2-(phenylamino)-1H-benzo[d]imidazol-6-yl)cinnoline-3-carboxamide] | 100 nM
5 | NC(=O)c1nnc2c(-c3ccc4nc(NCc5cccs5)[nH]c4c3)cccc2c1N [Example 88, 4-amino-8-(2-(thiophen-2-ylmethylamino)-1H-benzo[d]imidazol-6-yl)cinnoline-3-carboxamide] | 10 nM
6 | NC(=O)c1nnc2c(-c3ccc4nc(NCc5ccccc5)[nH]c4c3)cccc2c1N [Example 90, 4-amino-8-(2-(benzylamino)-1H-benzo[d]imidazol-6-yl)cinnoline-3-carboxamide] | 15.8 nM
7 | CC1CCC(Nc2nc3ccc(-c4cccc5c(N)c(C(N)=O)nnc45)cc3[nH]2)CC1 (centres unmarked) [Example 91, 4-amino-8-(2-(4-methylcyclohexylamino)-1H-benzo[d]imidazol-6-yl)cinnoline-3-carboxamide] | 79.4 nM
8 | CN(Cc1ccccc1)c1nc2ccc(-c3cccc4c(N)c(C(N)=O)nnc34)cc2[nH]1 [Example 92, 4-amino-8-(2-(benzyl(methyl)amino)-1H-benzo[d]imidazol-6-yl)cinnoline-3-carboxamide] | 1000 nM
9 | NC(=O)c1nnc2c(-c3ccc4nc(NCC5C6CC7CC(C6)CC5C7)[nH]c4c3)cccc2c1N (centres unmarked) [Example 94, 8-(2-((adamantan-2-ylmethyl)amino)-1H-benzo[d]imidazol-6-yl)-4-aminocinnoline-3-carboxamide] | 63.1 nM
10 | Cc1ccc2c(N)c(C(N)=O)nnc2c1-c1ccc2c(C#N)n[nH]c2c1 [Example 96, 4-amino-8-(3-cyano-1H-indazol-6-yl)-7-methylcinnoline-3-carboxamide] | 158 nM
11 | Cc1ccc2c(N)c(C(N)=O)nnc2c1-c1cnc2ncn(C)c2c1 [Example 97, 4-amino-7-methyl-8-(1-methyl-1H-imidazo[4,5-b]pyridin-6-yl)cinnoline-3-carboxamide] | 100 nM
12 | Cc1ccc2c(N)c(C(N)=O)nnc2c1-c1ccc2c(C)n[nH]c2c1 [Example 99, 4-amino-7-methyl-8-(3-methyl-1H-indazol-6-yl)cinnoline-3-carboxamide] | 63.1 nM
13 | Cc1ccc2c(N)c(C(N)=O)nnc2c1-c1ccc2c(F)n[nH]c2c1 [Example 100, 4-amino-8-(3-fluoro-1H-indazol-6-yl)-7-methylcinnoline-3-carboxamide] | 25.1 nM
14 | Cc1ccc2c(N)c(C(N)=O)nnc2c1-c1cc(F)c2nc[nH]c2c1 [Example 101, 4-amino-8-(4-fluoro-1H-benzo[d]imidazol-6-yl)-7-methylcinnoline-3-carboxamide] | 31.6 nM
15 | COc1cc2[nH]ncc2cc1-c1cccc2c(N)c(C(N)=O)nnc12 [Example 103, 4-amino-8-(6-methoxy-1H-indazol-5-yl)cinnoline-3-carboxamide] | 3.98 nM
16 | NC(=O)c1nnc2c(-c3cc4[nH]ncc4cc3Cl)cccc2c1N [Example 105, 4-amino-8-(5-chloro-1H-indazol-6-yl)cinnoline-3-carboxamide] | 15.8 nM
17 | Cc1ccc2c(N)c(C(N)=O)nnc2c1-c1ccc2c(C3CC3)n[nH]c2c1 [Example 106, 4-amino-8-(3-cyclopropyl-1H-indazol-6-yl)-7-methylcinnoline-3-carboxamide] | 501 nM
18 | NC(=O)c1nnc2c(-c3cc4[nH]ncc4cc3Cl)ccc(F)c2c1N [Example 107, 4-amino-8-(5-chloro-1H-indazol-6-yl)-5-fluorocinnoline-3-carboxamide] | 15.8 nM
19 | Cc1ccc2c(N)c(C(N)=O)nnc2c1-c1ccc2c(Cl)n[nH]c2c1 [Example 108, 4-amino-8-(3-chloro-1H-indazol-6-yl)-7-methylcinnoline-3-carboxamide] | 39.8 nM
20 | COc1cc2cn[nH]c2cc1-c1cccc2c(N)c(C(N)=O)nnc12 [Example 110, 4-amino-8-(5-methoxy-1H-indazol-6-yl)cinnoline-3-carboxamide] | 3.98 nM
21 | COc1cc2cn[nH]c2cc1-c1ccc(F)c2c(N)c(C(N)=O)nnc12 [Example 111, 4-amino-5-fluoro-8-(5-methoxy-1H-indazol-6-yl)cinnoline-3-carboxamide] | 2 nM
22 | NC(=O)c1nnc2c(-c3ccc4nc(-c5ccccc5)[nH]c4c3)cccc2c1N [Example 115, 4-amino-8-(2-phenyl-1H-benzo[d]imidazol-6-yl)cinnoline-3-carboxamide] | 79.4 nM
23 | NC(=O)c1nnc2c(-c3ccc4nc(-c5ccc(F)cc5)[nH]c4c3)cccc2c1N [Example 116, 4-amino-8-(2-(4-fluorophenyl)-1H-benzo[d]imidazol-6-yl)cinnoline-3-carboxamide] | 39.8 nM
24 | Cc1ccc2c(N)c(C(N)=O)nnc2c1-c1ccc2nc(-c3ccc(F)cc3)[nH]c2c1 [Example 120, 4-amino-8-(2-(4-fluorophenyl)-1H-benzo[d]imidazol-6-yl)-7-methylcinnoline-3-carboxamide] | 25.1 nM
25 | NC(=O)c1nnc2c(-c3ccc4c(c3)CNC4=O)cccc2c1N [Example 122] | 20 nM

Continued by falling IC50, values first:

Row | IC50 | SMILES
26 | 5010 nM | Cc1ccc2c(N)c(C(N)=O)nnc2c1-c1cnc2c(c1)ncn2C [Example 98, 4-amino-7-methyl-8-(3-methyl-3H-imidazo[4,5-b]pyridin-6-yl)cinnoline-3-carboxamide]
27 | 200 nM | CN1Cc2cc(-c3cccc4c(N)c(C(N)=O)nnc34)ccc2C1=O [Example 123, 4-amino-8-(2-methyl-1-oxoisoindolin-5-yl)cinnoline-3-carboxamide]
28 | 126 nM | NC(=O)c1nnc2c(-c3ccc4c(c3)CN(c3ccccc3)C4=O)cccc2c1N [Example 121, 4-amino-8-(1-oxo-2-phenylisoindolin-5-yl)cinnoline-3-carboxamide]
29 | 100 nM | Cc1ccc2c(N)c(C(N)=O)nnc2c1-c1ccc2nncn2c1 [Example 112, 8-([1,2,4]triazolo[4,3-a]pyridin-6-yl)-4-amino-7-methylcinnoline-3-carboxamide]
30 | 100 nM | NC(=O)c1nnc2c(-c3ccc4nc(-c5ccc(F)cc5F)[nH]c4c3)cccc2c1N [Example 118, 4-amino-8-(2-(2,4-difluorophenyl)-1H-benzo[d]imidazol-6-yl)cinnoline-3-carboxamide]
31 | 79.4 nM | CC(C)(C)c1ccc(-c2nc3ccc(-c4cccc5c(N)c(C(N)=O)nnc45)cc3[nH]2)cc1 [Example 117, 4-amino-8-(2-(4-tert-butylphenyl)-1H-benzo[d]imidazol-6-yl)cinnoline-3-carboxamide]
32 | 63.1 nM | Cc1ccc(CNc2nc3ccc(-c4cccc5c(N)c(C(N)=O)nnc45)cc3[nH]2)cc1 [Example 95, 4-amino-8-(2-(4-methylbenzylamino)-1H-benzo[d]imidazol-6-yl)cinnoline-3-carboxamide]
33 | 31.6 nM | Cc1ccc2c(N)c(C(N)=O)nnc2c1-c1ccc2cn[nH]c2c1F [Example 104, 4-amino-8-(7-fluoro-1H-indazol-6-yl)-7-methylcinnoline-3-carboxamide]
34 | 25.1 nM | Cc1ccc2c(N)c(C(N)=O)nnc2c1-c1cc(F)c2cn[nH]c2c1 [Example 102, 4-amino-8-(4-fluoro-1H-indazol-6-yl)-7-methylcinnoline-3-carboxamide]
35 | 20 nM | Cc1ccc2c(N)c(C(N)=O)nnc2c1-c1ccc2cncn2c1 [Example 113, 4-amino-8-(imidazo[1,5-a]pyridin-6-yl)-7-methylcinnoline-3-carboxamide]
36 | 7.94 nM | NC(=O)c1nnc2c(-c3ccc4nc(NCC5CCCC5)[nH]c4c3)cccc2c1N [Example 93, 4-amino-8-(2-(cyclopentylmethylamino)-1H-benzo[d]imidazol-6-yl)cinnoline-3-carboxamide]
37 | 3.98 nM | Cc1ccc2c(N)c(C(N)=O)nnc2c1-c1ccn2cncc2c1 [Example 114, 4-amino-8-(imidazo[1,5-a]pyridin-7-yl)-7-methylcinnoline-3-carboxamide]
38 | 2 nM | COc1cc2[nH]ncc2cc1-c1ccc(F)c2c(N)c(C(N)=O)nnc12 [Example 109, 4-amino-5-fluoro-8-(6-methoxy-1H-indazol-5-yl)cinnoline-3-carboxamide]
